Columns and labels:
[1] = test system: pediatric brain tumor models; conditions: background statement; cited from earlier work
[2] = Relative thermodynamic stability of crystalline polymorphs (DSC); assay type: physicochemical; conditions: Form A compared with Form F, from melting temperatures
Experimental: DSC ANALYSIS. Thermal events (i.e., melting, re-crystallization) were obtained from DSC thermograms, recorded with a heat flux DSC3+ STARe system (Mettler-Toledo GmbH, Switzerland). The DSC3+ was calibrated for temperature and enthalpy with a small piece of indium (m.p.=156.6° C.; δHf=28.45 J/g) and zinc (m.p.=419.6° C.; δHf=107.5 J/g). Samples (circa 2 mg) were sealed in standard 40 μL aluminum pans, pin-holed and heated in the DSC from 25° C. to 300° C., at a heating rate of 10° C./min. Dry N2 gas, at a flow rate of 50 mL/min was used to purge the DSC equipment during measurement. The cycling DSC experiments were measured in standard 40 μL aluminum pans, pin-holed and heated in the DSC from 25° C. to variable temperatures, then cooled back to 25° C. The heating and cooling rate was 10° C./min. Dry N2 gas, at a flow rate of 50 mL/min was used to purge the DSC equipment during measurement. Afterwards the samples were recovered and analyzed by HT-XRPD.
Form A obtained from the solvent equilibration experiment at RT in TFE was used for the analytical characterization. […] (FIG. 12A). […] The LCMS analysis confirmed the Form A's integrity with a purity of 100% (area %) (FIG. 12C).
Form F obtained from the evaporative crystallization experiment using DMF/acetonitrile (80/20, v/v) was used for characterization. […]

| thermodynamic stability of the polymorph [2] | SMILES | therapeutic response [1] |
| --- | --- | --- |
|  | Nc1ncn([C@H]2C[C@H](O)[C@@H](CO)S2)c(=O)n1 [5-aza-4′-thio-2′-deoxycytidine] | no significant therapeutic response |
|  | Nc1nc(=O)n([C@H]2C[C@H](O)[C@@H](CO)O2)cc1F [5-fluoro-2′-deoxycytidine, reference compound] | no significant therapeutic response |
| thermodynamically more stable form | Nc1ncn([C@H]2C[C@H](O)[C@@H](CO)S2)c(=O)n1 [Form A, 5-aza-4′-thio-2′-deoxycytidine] |  |

Source: patent US20230123277A1, “COMPOSITIONS COMPRISING 2'-DEOXYCYTIDINE ANALOGS AND USE THEREOF FOR THE TREATMENT OF SICKLE CELL DISEASE AND THALASSEMIA” (AkiraBio, Inc., priority 2021, published 2023)
